The values that follow come from paper PMC10609173, “Antiplasmodial and Antileishmanial Activities of a New Limonoid and Other Constituents from the Stem Bark of Khaya senegalensis” (Molecules, 2023).

In brackets after ≈: the same amount, converted by molar mass. Bounds are passed on as bounds.

On the set-up of data set [1]: method as in PMID 30663371. The settings on record: limonoid from Meliaceae; cited from earlier work.
The nature of data set [2]: Cytotoxicity assay (resazurin) on RAW 264.7 macrophages. It counts as cell-based, murine. The settings on record: mouse, RAW 264.7 macrophage cells; RAW 264.7 macrophages, 48 h incubation, resazurin; read-out: Cytotoxicity on RAW 264.7 Cells CC50 ± SD. How it is done:
The murine macrophage RAW 264.7 cell line was grown in DMEM (Dulbecco’s modified Eagle’s medium) containing 1% penicillin-streptomycin, 1% nonessential amino acids (NEA), and 10% HIFBS at 37 °C, and 5% CO2 in a humidified environment. A reverse Etaluma fluorescence microscope was used to view the cells every day, and the growth media was replaced every 72 h. At 80% confluence, cells were isolated using 0.25% Trypsine-EDTA (Gibco, MT, USA).
The murine macrophages, RAW 264.7 cells, were plated into a 96-well cell culture treated flat-bottomed plate ([…], Inc., Newton, NC 28658, USA) at a density of 10 × 10^4 cells/100 μL/well and incubated overnight to enable cell adhesion. A fresh complete medium containing serially diluted concentrations of crude extract, fractions, and compounds was used to replace the previous medium. The final assay concentration values for extracts/fractions and compounds varied from 400 μg/mL to 0.8 μg/mL and 100–0.16 μg/mL, respectively. Podophyllotoxin (Sigma-Aldrich, Munich, Germany) was used as a positive control at a maximum dose of 10 μM. After 48 h of incubation, 10 μL of resazurin solution (0.15 mg/mL dissolved in PBS) was added to each well, and the plates were incubated for an additional 4 h. Fluorescence data were finally recorded with a Magellan Infinite M200 plate reader (Tecan, Germany) at excitation and emission wavelengths of 530 nm and 590 nm, respectively.
(§1) The resulting fluorescence readings were used to calculate the growth inhibition percentages relative to the negative control for each sample and for each of the tested doses. GraphPad Prism 8.0 software was used to generate concentration-response curves from the nonlinear regression fit to determine the median inhibitory or cytotoxic concentration (IC50/CC50). The resistance index (RI) for antiplasmodial tests was calculated as the ratio between the samples’ IC50 values for the chloroquine-sensitive strain 3D7 and the multiresistant strain Dd2 [69]. Inhibitors with an RI value below 1 were considered to act preferentially on the resistant strain. Based on each inhibitor’s antiparasitic efficacy (IC50) and cell toxicity (CC50), selectivity indices (SI) were calculated [SI = CC50 (RAW)/IC50 (Parasites)]. Samples were classified as poorly toxic to RAW cells if their SI values were greater than 10 [70].
In general terms: The colour change of resazurin is a common sign of viable cells or microbes.

Data set [3] concerns chloroquine-sensitive 3D7 strain of Plasmodium falciparum (Pf3D7). Briefly: Antiplasmodial SYBR Green I fluorescence assay, Pf3D7 strain. Type of data set: cell-based. The note with it: 3D7, Pf3D7 strain, ring stage, 72 h, read-out: Antiplasmodial Activity Pf3D7 IC50 ± SD.
Excerpt: (§2) The parasite strains used in this study are continuously cultured at the Antimicrobial and Biocontrol Agents Unit of the University of Yaoundé I, and were graciously provided by BEI Resources (https://www.beiresources.org (accessed on 16 February 2019)). They comprise the Leishmania donovani strain (1S(MHOM/SD/62/1S), the multiresistant (PfDd2), and the chloroquine-sensitive (Pf3D7-(MRA-102)) strains of Plasmodium falciparum. RPMI 1640 media supplemented with 0.2% sodium bicarbonate (Sigma Aldrich, Billings, MT, USA), 0.5% Albumax II (Gibco), 1% hypoxanthine 100X (Gibco, Billings, MT, USA), 25 mM HEPES, and 0.04% gentamicin (Sigma Aldrich) was used to sustain P. falciparum strains in sterile petri dishes. Fresh red blood cells from healthy O^+ human volunteers were also added to the medium. These cells were suspended at 4% hematocrit (v/v) and incubated at 37 °C in a humidified environment with 5% CO2. To regularly maintain the culture, fresh medium was added to the culture every day. Thin blood smears stained with 10% Giemsa were used to microscopically monitor cell-cycle transition and parasitemia under immersion oil.
(§3) The antiplasmodial efficacy of the samples was evaluated using the SYBR Green I-based fluorescence assay, as previously reported by Smilkstein et al., on a sorbitol-synchronized ring stage culture of Plasmodium falciparum (PfDd2 and Pf3D7 strains). The test relies on the development of intense fluorescence following SYBR green binding to the exposed DNA found in wells containing healthy cells. Ninety microliters of parasites prepared with 1% hematocrit and 2% parasitemia and 10 μL of test sample extracts, fractions, isolated chemicals, chloroquine, and artemisinin were each added in triplicate into wells of a flat-bottomed microplate. The final test concentration values for the samples varied from 50 μg/mL-0.08 μg/mL and 100 μg/mL-0.16 μg/mL for extract/fractions. Following a 72 h incubation at 37 °C, 100 μL of SYBR Green I solution prepared with lysis buffer (0.2 μL of 10,000 SYBR Green I per mL of lysis buffer) made of EDTA (5 mM), Tris (20 mM; pH 7.5), Triton X-100 (0.08%; v/v), and saponin (0.008%; m/v) was added to each well. Fluorescence measurements were taken using an Infinite M200 microplate reader (Tecan, MT, USA) at emission and excitation wavelengths of 538 and 485 nm, respectively.
as §1

Data set [4] deals with multidrug-resistant Dd2 strain of Plasmodium falciparum (PfDd2). Kind of data set: Antiplasmodial SYBR Green I fluorescence assay, PfDd2 strain. Type of data set: cell-based. The note with it: for IC50: Plasmodium falciparum, DD2, 72 h, read-out: Antiplasmodial Activity PfDd2 IC50 ± SD, PfDd2 strain, ring stage, 72 h.
Excerpt: as §2, §3, §1

The subject of data set [5] is promastigote form of Leishmania donovani (1S(MHOM/SD/62/1S)). Kind of data set: Antileishmanial resazurin-based assay on promastigotes. Type of data set: cell-based. The settings on record: for IC50: Leishmania donovani, L. donovani promastigotes, 28 °C, read-out: Antileishmanial Activity IC50 ± SD; for Antileishmanial Selectivity (SI): SI = CC50 against macrophages/IC50 against promastigotes. How it is done:
A T-75 cm^2 cell culture flask was filled with complete Medium 199 [M199 supplemented with 10% heat-inactivated fetal bovine serum (HIFBS) and 100 IU/mL penicillin/streptomycin (Sigma, Darmstadt, Germany)] and used to grow the promastigote forms of Leishmania donovani. Every 72 h, flasks were subcultured and incubated at 28 °C.
The resazurin-based assay was used to evaluate the antileishmanial activity of the extract (100 μg/mL–0.16 μg/mL), major fractions (100 μg/mL–0.16 μg/mL), and isolated compounds (50 μg/mL–0.08 μg/mL) against the promastigote form of Leishmania donovani. Briefly, 10 μL of inhibitors at various triplicate doses (as prescribed for the antiplasmodial assay) were added to 90 μL of promastigotes from a logarithmic phase culture at a density of 4.10^5 parasites/mL. The plates were incubated for 28 h at 28 °C, and 10 μL of resazurin solution (Sigma, Darmstadt, Germany) was added. Amphotericin B (Sigma, Darmstadt, Germany) (10 μg–0.016 μg/mL) and 0.1% DMSO-treated wells were used as the […], respectively. After a further 44 h of incubation, plates were read using a Magelan Infinite M200 fluorescence plate reader (Tecan, Männedorf, Switzerland) at excitation and emission wavelengths of 530 and 590 nm, respectively.
as §1

Data set [6] deals with promastigote. The arrangement: method as in PMID 24949478. The settings on record: isolate from Canarium patentinervium; cited from earlier work.
On the set-up of data set [7]: method as in PMID 36249737, PMID 20162079. The settings on record: 400 mg/kg; from leaf extract of Osyris quadripartita; cited from earlier work.
On the set-up of data set [8]: method as in PMID 30663371. The settings on record: limonoid from Meliaceae; cited from earlier work. The source holds these as a separate data set.
The test system of data set [9] is clinical isolate of P. falciparum. Details: method as in doi:10.1080/13880200601009123. The settings on record: cited from earlier work.
A further data set deals with Leishmania amazonensis. Details: method as in PMID 21343887. The note with it: cited from earlier work.
Data set [10] relates to promastigote. Details: method as in PMID 15070160. The note with it: from Pourouma guianensis; cited from earlier work.
Another data set concerns amastigote. Details: method as in PMID 15070160. The settings on record: from Pourouma guianensis; cited from earlier work.

On to trigilgianin, for which the “IC50, antileishmanial activity” value in data set [1] was 6.044 µg/mL.
A word on the CC50: it is the concentration at which the toxic effect on the cells reaches its halfway point. One may read the IC50 as the concentration at which inhibition is half-maximal. Consider `Oc1cc(O)c2c(c1)O[C@H](c1ccc(O)c(O)c1)[C@@H](O)C2` [Catechin (9), catechin], for which, in data set [2], the CC50 at 48 h was above 400 µg/mL. In addition, the IC50 in data set [3] was determined as 111.96 ± 0.04 µg/mL (≈ 386 µM); in data set [4] it was 2.95 µg/mL (≈ 10.2 µM); in [5], 27 ± 0.7 µg/mL (≈ 92.9 µM). Also, the “Antiplasmodial Activity PfDd2 IC50 ± SD” value in data set [4] (PfDd2 strain, ring stage, 72 h) was 2.93 ± 0.02 µg/mL. In addition, the “Antileishmanial Selectivity (SI)” value in data set [5] is given as above 14.83. The “IC50, antipromastigote activity” value in the data set on promastigote [6] is 478.93 ± 0.28 µg/mL (≈ 1650 µM). Moreover, the “antimalarial effect, suppression value” in data set [7] is recorded as 64.26%.
For the molecule `CC(=O)O[C@@H]1C[C@H]2C(C)(C)OC(=O)C=C[C@]2(C)[C@H]2CC[C@@]3(C)[C@@H](c4ccoc4)OC(=O)[C@H]4O[C@]43[C@@]21C` [7α-obacunyl acetate], the “IC50, antiplasmodial activity” value in data set [8] was 5.14 µg/mL.
For the molecule `CC1(C)CC[C@]2(C(=O)O)CC[C@]3(C)C(=CC[C@@H]4[C@@]5(C)CC[C@H](O)C(C)(C)[C@@H]5CC[C@]43C)[C@@H]2C1` [Oleanolic acid (7), oleanolic acid], in data set [2], the CC50 at 48 h is above 400 µg/mL. The IC50 is 93.58 ± 0.92 µg/mL (≈ 205 µM) in data set [3], 43.6 ± 0.73 µg/mL (≈ 95.4 µM) in data set [4] and 30.6 ± 0.67 µg/mL (≈ 67.1 µM) in data set [5]. Also, the “Antileishmanial Selectivity (SI)” value in [5] is “˃13.06”. Also, the “IC50, growth of clinical isolate of P. falciparum” value in [9] was 15.2 µg/mL. Besides, the “IC50, growth of Leishmania amazonensis” value in the data set with Leishmania amazonensis was 439.5 µg/mL. Also, the “IC50, antipromastigote effect” value with promastigote [10] was 10 µg/mL (≈ 21.9 µM). In the data set on amastigote, the “IC50, antiamastigote inhibitory activity” value is 27 µg/mL (≈ 59.1 µM).
